Data reported in patent US20100298551A1, “Methods Of Producing And Sequencing Modified Polynucleotides” (priority 2005, published 2010).

Target: T1, exo− E. coli Polymerase I, Klenow fragment (Escherichia coli, UniProt P00582, D355A/E357A)
T1 construct: 12.5 U exo^− E. coli Polymerase I, Klenow fragment (Epicentre); purchased Epicentre
Assay: Primer extension: incorporation of 3′ thiol-nucleoside triphosphate into a growing DNA strand by DNA polymerase
Format: biochemical
Protocol: DNA synthesis was performed on a single-stranded DNA template (5′-TTTTTTCTAAGGTAGCGACTGTCCTATACAGACTGACAAAAAAAGAGAATGAGGAACCCGGGGCAG-3′) (SEQ ID NO:1), which was labeled at its 5′ end with a dual biotin tag and was attached to a magnetic bead (FIG. 3B). Synthesis was primed using a primer (5′-CTGCCCCGGGTTCCTCATTCTCT-3′) (SEQ ID NO:2), which was complementary to a portion of the DNA template. The primer was labeled with Cy5 at its 5′ end. The DNA template contained 5 adenine nucleotides immediately downstream of the primer sequence. […]

T1 sequence (P00582 324-928 D355A/E357A): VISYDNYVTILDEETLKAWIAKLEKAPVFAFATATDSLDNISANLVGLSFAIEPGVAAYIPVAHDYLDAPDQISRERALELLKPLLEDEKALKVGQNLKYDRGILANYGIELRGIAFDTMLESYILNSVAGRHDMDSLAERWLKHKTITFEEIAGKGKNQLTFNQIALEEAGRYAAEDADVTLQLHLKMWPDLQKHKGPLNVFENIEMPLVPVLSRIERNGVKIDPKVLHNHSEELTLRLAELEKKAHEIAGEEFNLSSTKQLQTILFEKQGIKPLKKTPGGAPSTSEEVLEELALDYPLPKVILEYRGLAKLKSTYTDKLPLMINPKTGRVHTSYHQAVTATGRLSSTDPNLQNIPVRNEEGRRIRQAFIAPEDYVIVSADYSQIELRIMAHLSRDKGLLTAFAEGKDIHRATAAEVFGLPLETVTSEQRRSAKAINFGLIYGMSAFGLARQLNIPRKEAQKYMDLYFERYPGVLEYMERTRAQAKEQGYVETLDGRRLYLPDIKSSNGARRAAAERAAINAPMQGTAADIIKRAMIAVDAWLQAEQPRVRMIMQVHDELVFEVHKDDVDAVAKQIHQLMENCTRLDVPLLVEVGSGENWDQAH

CSS[C@H]1C[C@H](n2cc(C)c(=O)[nH]c2=O)O[C@@H]1CO [3′-deoxy-dithiomethyl thymidine]
modified thymidine residues in the vast majority of reaction products (higher concentration 1.0 mM (FIG. 3E)): 5
number of 3′-deoxy-dithiomethyl thymidine nucleotides incorporated into the DNA product (template with 5 adenines downstream of primer, 37° C., 4.0 min): Up to five
